Source: the kinase profiling compilation of Christmann-Franck et al. (2016)

Legend:
Settings in all cases: compound 10.0 µM
BMX (human) = BMX (human) (UniProt P51813)
CAMK2A (human) = CAMK2A (human) (UniProt Q9UQM7)
CAMK2B (human) = CAMK2B (human) (UniProt Q13554)
CAMK2D (human) = CAMK2D (human) (UniProt Q13557)
CASK (human) = CASK (human) (UniProt O14936)
CRK2 (P.falciparum) = CRK2 (P.falciparum) (UniProt P61075)
CaMK1 (human) = CaMK1 (human) (UniProt Q14012)
DDR1 (human) = DDR1 (human) (UniProt Q08345)
EPHB1 (human) = EPHB1 (human) (UniProt P54762)
EPHB6 (human) = EPHB6 (human) (UniProt O15197)
ERN1 (human) = ERN1 (human) (UniProt O75460)
FES (human) = FES (human) (UniProt P07332)
FLT3 (human) = FLT3 (human) (UniProt P36888)
[1] = system: FLT3 (human), P36888 [ITD]
[2] = system: FLT3 (human), P36888 [K663Q]
[3] = system: FLT3 (human), P36888 [N841I]
[4] = system: FLT3 (human), P36888 [R834Q]
FYN (human) = FYN (human) (UniProt P06241)
GAK (human) = GAK (human) (UniProt O14976)
GRK7 (human) = GRK7 (human) (UniProt Q8WTQ7)
GSK3B (human) = GSK3B (human) (UniProt P49841)
HUNK (human) = HUNK (human) (UniProt P57058)
LRRK2 (human) = LRRK2 (human) (UniProt Q5S007)
LYN (human) = LYN (human) (UniProt P07948)
MAP2K6 (human) = MAP2K6 (human) (UniProt P52564)
MAP3K15 (human) = MAP3K15 (human) (UniProt Q6ZN16)
MAPK10 (human) = MAPK10 (human) (UniProt P53779)
MAPK4 (human) = MAPK4 (human) (UniProt P31152)
MAPK9 (human) = MAPK9 (human) (UniProt P45984)
MYLK4 (human) = MYLK4 (human) (UniProt Q86YV6)
MYO3A (human) = MYO3A (human) (UniProt Q8NEV4)
NEK3 (human) = NEK3 (human) (UniProt P51956)
OXSR1 (human) = OXSR1 (human) (UniProt O95747)
PIK3C2B (human) = PIK3C2B (human) (UniProt O00750)
PTK6 (human) = PTK6 (human) (UniProt Q13882)
[5] = system: RET (human), P07949 [V804L]
ROS1 (human) = ROS1 (human) (UniProt P08922)
SNRK (human) = SNRK (human) (UniProt Q9NRH2)
STK39 (human) = STK39 (human) (UniProt Q9UEW8)
TNIK (human) = TNIK (human) (UniProt Q9UKE5)
TSSK1B (human) = TSSK1B (human) (UniProt Q9BXA7)
YSK4 (human) = YSK4 (human) (UniProt Q56UN5)

Chain of LRRK2 (human) (Q5S007 whole entry, looked up): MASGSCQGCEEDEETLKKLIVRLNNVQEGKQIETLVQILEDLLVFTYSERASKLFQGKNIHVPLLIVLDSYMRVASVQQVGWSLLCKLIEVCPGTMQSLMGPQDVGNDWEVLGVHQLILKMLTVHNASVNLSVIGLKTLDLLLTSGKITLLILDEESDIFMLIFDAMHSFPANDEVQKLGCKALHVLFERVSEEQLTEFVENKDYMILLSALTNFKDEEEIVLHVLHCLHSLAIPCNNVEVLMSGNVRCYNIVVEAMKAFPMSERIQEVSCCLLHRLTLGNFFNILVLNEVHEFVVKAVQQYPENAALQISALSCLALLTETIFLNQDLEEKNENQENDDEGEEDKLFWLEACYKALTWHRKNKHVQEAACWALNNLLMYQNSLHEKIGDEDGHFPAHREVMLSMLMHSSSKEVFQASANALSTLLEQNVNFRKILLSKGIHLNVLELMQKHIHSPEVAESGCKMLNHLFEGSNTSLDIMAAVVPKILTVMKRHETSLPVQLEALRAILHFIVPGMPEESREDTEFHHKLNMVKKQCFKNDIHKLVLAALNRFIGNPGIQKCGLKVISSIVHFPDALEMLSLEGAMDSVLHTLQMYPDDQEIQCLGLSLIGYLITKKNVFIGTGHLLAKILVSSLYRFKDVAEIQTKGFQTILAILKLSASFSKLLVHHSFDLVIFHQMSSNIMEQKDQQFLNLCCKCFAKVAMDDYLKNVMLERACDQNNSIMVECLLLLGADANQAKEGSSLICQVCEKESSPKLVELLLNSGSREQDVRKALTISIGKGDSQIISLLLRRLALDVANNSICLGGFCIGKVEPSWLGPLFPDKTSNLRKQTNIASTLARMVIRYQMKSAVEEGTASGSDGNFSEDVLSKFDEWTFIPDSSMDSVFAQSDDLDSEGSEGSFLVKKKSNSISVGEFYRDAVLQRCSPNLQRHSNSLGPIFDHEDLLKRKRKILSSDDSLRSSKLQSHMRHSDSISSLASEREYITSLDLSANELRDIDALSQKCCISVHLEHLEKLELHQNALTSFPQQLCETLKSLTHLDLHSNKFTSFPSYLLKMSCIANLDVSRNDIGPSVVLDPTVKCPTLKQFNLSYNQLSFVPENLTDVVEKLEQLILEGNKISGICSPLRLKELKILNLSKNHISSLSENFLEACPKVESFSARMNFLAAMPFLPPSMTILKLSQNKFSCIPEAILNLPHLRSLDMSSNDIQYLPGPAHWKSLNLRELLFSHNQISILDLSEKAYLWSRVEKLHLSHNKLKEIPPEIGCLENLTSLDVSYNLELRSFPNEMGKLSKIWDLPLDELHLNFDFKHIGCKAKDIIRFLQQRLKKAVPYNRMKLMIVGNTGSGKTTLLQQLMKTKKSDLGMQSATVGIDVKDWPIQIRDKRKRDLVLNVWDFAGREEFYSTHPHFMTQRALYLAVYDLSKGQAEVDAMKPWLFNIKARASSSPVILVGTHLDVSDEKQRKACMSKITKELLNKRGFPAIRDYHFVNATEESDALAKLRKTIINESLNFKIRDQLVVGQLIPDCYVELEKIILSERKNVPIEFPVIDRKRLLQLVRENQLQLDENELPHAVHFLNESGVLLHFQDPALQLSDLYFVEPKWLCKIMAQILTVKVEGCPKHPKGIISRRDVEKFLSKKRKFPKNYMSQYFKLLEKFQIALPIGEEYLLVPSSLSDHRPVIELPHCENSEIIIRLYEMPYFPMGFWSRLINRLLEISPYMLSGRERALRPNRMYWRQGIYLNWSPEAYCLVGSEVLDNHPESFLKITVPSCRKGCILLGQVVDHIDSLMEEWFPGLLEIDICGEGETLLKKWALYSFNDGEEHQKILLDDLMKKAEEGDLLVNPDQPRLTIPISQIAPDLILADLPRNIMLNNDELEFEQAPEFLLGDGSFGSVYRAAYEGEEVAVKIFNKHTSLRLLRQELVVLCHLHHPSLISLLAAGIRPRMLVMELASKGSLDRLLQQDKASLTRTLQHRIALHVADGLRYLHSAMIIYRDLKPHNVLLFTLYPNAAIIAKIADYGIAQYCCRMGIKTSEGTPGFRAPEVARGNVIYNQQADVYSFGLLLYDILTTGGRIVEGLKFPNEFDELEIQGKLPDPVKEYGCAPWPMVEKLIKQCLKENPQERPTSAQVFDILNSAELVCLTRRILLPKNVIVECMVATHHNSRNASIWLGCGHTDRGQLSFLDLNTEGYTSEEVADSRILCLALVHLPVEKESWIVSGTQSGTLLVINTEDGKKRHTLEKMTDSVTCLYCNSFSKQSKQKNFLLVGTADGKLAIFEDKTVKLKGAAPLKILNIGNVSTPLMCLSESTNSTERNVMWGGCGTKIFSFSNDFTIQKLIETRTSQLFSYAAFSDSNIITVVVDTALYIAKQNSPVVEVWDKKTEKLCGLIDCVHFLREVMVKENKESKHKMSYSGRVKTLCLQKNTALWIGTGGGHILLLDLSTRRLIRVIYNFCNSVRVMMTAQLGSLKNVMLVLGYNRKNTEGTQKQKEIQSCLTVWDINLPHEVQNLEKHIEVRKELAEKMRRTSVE
Chain of MYLK4 (human) (Q86YV6 whole entry, looked up): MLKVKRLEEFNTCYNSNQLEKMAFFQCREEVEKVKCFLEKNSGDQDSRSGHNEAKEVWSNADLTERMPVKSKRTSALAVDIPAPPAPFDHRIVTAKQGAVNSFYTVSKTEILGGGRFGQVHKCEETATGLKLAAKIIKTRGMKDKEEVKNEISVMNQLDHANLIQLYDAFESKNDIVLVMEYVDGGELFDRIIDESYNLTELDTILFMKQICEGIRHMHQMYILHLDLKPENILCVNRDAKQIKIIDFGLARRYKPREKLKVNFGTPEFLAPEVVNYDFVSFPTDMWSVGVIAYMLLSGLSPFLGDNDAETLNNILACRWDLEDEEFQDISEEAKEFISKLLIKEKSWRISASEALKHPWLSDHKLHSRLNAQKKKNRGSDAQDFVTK
Chain of MAP2K6 (human) (P52564 whole entry, looked up): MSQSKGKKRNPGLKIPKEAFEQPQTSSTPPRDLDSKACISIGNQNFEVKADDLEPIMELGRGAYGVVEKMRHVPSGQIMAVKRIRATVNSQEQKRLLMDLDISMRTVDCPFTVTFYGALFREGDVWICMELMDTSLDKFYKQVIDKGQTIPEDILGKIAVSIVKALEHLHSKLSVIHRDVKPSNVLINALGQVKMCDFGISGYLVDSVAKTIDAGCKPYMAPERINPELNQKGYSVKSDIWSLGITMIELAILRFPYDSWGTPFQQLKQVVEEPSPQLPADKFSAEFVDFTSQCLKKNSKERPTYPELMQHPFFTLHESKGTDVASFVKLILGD
Chain of CAMK2B (human) (Q13554 whole entry, looked up): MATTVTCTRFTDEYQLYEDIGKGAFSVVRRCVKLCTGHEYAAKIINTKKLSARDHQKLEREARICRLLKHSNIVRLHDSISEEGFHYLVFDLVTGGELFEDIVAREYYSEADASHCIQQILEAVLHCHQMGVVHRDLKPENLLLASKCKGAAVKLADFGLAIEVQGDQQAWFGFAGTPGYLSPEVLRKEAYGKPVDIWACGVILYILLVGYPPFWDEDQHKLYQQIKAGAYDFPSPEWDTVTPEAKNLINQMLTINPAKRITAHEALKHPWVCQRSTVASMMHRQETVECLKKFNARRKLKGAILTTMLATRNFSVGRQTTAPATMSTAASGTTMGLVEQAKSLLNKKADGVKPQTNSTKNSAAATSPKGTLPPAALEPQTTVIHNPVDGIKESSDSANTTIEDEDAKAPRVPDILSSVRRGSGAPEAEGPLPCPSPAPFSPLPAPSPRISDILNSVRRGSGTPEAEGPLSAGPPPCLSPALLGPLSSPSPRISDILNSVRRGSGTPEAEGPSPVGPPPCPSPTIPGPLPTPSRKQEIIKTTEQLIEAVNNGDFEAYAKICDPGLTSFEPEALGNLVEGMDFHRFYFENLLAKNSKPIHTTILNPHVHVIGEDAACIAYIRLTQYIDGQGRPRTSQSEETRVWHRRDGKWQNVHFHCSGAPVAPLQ
Chain of LYN (human) (P07948 whole entry, looked up): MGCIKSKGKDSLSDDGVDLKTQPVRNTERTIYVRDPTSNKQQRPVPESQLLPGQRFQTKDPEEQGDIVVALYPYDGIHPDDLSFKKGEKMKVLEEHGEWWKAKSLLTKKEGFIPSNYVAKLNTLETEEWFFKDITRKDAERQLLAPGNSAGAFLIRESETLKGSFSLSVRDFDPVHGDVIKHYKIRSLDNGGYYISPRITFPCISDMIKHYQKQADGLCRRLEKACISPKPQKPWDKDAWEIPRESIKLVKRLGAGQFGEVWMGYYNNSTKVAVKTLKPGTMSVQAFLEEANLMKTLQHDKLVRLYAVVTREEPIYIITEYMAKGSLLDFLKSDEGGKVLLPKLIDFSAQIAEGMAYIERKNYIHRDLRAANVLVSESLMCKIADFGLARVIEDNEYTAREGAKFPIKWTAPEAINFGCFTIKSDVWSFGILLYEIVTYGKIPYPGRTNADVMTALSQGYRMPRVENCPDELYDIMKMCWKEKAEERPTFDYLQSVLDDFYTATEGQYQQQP
Chain of CAMK2A (human) (Q9UQM7 whole entry, looked up): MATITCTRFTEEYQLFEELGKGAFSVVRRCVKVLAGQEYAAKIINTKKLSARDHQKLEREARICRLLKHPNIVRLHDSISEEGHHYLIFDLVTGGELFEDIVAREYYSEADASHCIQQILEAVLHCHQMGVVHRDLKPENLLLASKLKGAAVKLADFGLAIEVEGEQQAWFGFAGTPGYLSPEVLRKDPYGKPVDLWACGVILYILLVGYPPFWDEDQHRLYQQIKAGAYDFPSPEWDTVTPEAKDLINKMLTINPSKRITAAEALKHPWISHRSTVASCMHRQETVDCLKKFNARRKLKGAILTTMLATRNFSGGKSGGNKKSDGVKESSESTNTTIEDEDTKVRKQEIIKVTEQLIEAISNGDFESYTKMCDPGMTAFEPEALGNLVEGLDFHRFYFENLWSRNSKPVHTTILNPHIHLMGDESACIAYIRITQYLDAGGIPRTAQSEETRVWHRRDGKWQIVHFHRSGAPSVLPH

CNC(=O)c1cc(Oc2ccc(NC(=O)Nc3ccc(Cl)c(C(F)(F)F)c3)cc2)cc[n+]1[O-] was tested. Which per cent of control (BMX (human)) did it give?
The per cent of control was 67%.

And the per cent of control (CAMK2A (human))?
The per cent of control was 96%.

What about the per cent of control (CAMK2B (human)) of the same compound?
Its per cent of control is 89%.

What about the per cent of control (CAMK2D (human)) of the same compound?
Its per cent of control is 87%.

What about the per cent of control (CASK (human)) of the same compound?
Its per cent of control is 100%.

What about the per cent of control (CRK2 (P.falciparum)) of the same compound?
Its per cent of control is 100%.

What about the per cent of control (CaMK1 (human)) of the same compound?
Its per cent of control is 58%.

What about the per cent of control (DDR1 (human)) of the same compound?
The per cent of control was 0.05%.

What about the per cent of control (EPHB1 (human)) of the same compound?
Its per cent of control is 20%.

And the per cent of control (EPHB6 (human))?
The per cent of control was 1.8%.

What about the per cent of control (ERN1 (human)) of the same compound?
The per cent of control was 66%.

And the per cent of control (FES (human))?
Its per cent of control is 98%.

What about the per cent of control (FLT3 (human)) of the same compound?
Its per cent of control is 0.1%.

What about the per cent of control [1] of the same compound?
The per cent of control was 0.4%.

And the per cent of control [2]?
Its per cent of control is 0.2%.

And the per cent of control [3]?
Its per cent of control is 0%.

And the per cent of control [4]?
Its per cent of control is 9%.

And the per cent of control (FYN (human))?
Its per cent of control is 41%.

What about the per cent of control (GAK (human)) of the same compound?
The per cent of control was 70%.

And the per cent of control (GRK7 (human))?
The per cent of control was 100%.

And the per cent of control (GSK3B (human))?
The per cent of control was 79%.

And the per cent of control (HUNK (human))?
Its per cent of control is 74%.

What about the per cent of control (LRRK2 (human)) of the same compound?
Its per cent of control is 80%.

And the per cent of control (LYN (human))?
Its per cent of control is 11%.

What about the per cent of control (MAP2K6 (human)) of the same compound?
The per cent of control was 55%.

What about the per cent of control (MAP3K15 (human)) of the same compound?
The per cent of control was 80%.

And the per cent of control (MAPK10 (human))?
Its per cent of control is 4.4%.

What about the per cent of control (MAPK4 (human)) of the same compound?
The per cent of control was 78%.

And the per cent of control (MAPK9 (human))?
The per cent of control was 0.05%.

And the per cent of control (MYLK4 (human))?
The per cent of control was 100%.

And the per cent of control (MYO3A (human))?
The per cent of control was 14%.

What about the per cent of control (NEK3 (human)) of the same compound?
Its per cent of control is 100%.

What about the per cent of control (OXSR1 (human)) of the same compound?
Its per cent of control is 100%.

What about the per cent of control (PIK3C2B (human)) of the same compound?
Its per cent of control is 100%.

And the per cent of control (PTK6 (human))?
Its per cent of control is 100%.

And the per cent of control [5]?
The per cent of control was 0%.

And the per cent of control (ROS1 (human))?
The per cent of control was 73%.

What about the per cent of control (SNRK (human)) of the same compound?
Its per cent of control is 95%.

What about the per cent of control (STK39 (human)) of the same compound?
The per cent of control was 87%.

And the per cent of control (TNIK (human))?
The per cent of control was 3.9%.

What about the per cent of control (TSSK1B (human)) of the same compound?
The per cent of control was 100%.

And the per cent of control (YSK4 (human))?
Its per cent of control is 0.1%.

How did the per cent of control (BMX (human)) turn out when CNC(=O)c1cc(Oc2ccc(NC(=O)Nc3ccc(Cl)c(C(F)(F)F)c3)cc2)ccn1 was run?
Its per cent of control is 94%.

What about the per cent of control (CAMK2A (human)) of the same compound?
The per cent of control was 93%.

And the per cent of control (CAMK2B (human))?
The per cent of control was 96%.

And the per cent of control (CAMK2D (human))?
Its per cent of control is 89%.

What about the per cent of control (CASK (human)) of the same compound?
The per cent of control was 100%.

And the per cent of control (CRK2 (P.falciparum))?
Its per cent of control is 59%.

And the per cent of control (CaMK1 (human))?
Its per cent of control is 87%.

And the per cent of control (DDR1 (human))?
The per cent of control was 0%.

What about the per cent of control (EPHB1 (human)) of the same compound?
The per cent of control was 18%.

What about the per cent of control (EPHB6 (human)) of the same compound?
The per cent of control was 2.4%.

And the per cent of control (ERN1 (human))?
The per cent of control was 92%.

What about the per cent of control (FES (human)) of the same compound?
The per cent of control was 72%.

What about the per cent of control (FLT3 (human)) of the same compound?
Its per cent of control is 0.05%.

And the per cent of control [1]?
The per cent of control was 0.5%.

And the per cent of control [2]?
The per cent of control was 0.25%.

What about the per cent of control [3] of the same compound?
Its per cent of control is 0%.

What about the per cent of control [4] of the same compound?
The per cent of control was 12%.

And the per cent of control (FYN (human))?
Its per cent of control is 35%.

What about the per cent of control (GAK (human)) of the same compound?
The per cent of control was 62%.

What about the per cent of control (GRK7 (human)) of the same compound?
The per cent of control was 100%.

And the per cent of control (GSK3B (human))?
The per cent of control was 92%.

What about the per cent of control (HUNK (human)) of the same compound?
The per cent of control was 90%.

What about the per cent of control (LRRK2 (human)) of the same compound?
The per cent of control was 86%.

What about the per cent of control (LYN (human)) of the same compound?
Its per cent of control is 11%.

What about the per cent of control (MAP2K6 (human)) of the same compound?
The per cent of control was 73%.

And the per cent of control (MAP3K15 (human))?
Its per cent of control is 79%.

And the per cent of control (MAPK10 (human))?
The per cent of control was 90%.

What about the per cent of control (MAPK4 (human)) of the same compound?
Its per cent of control is 79%.

And the per cent of control (MAPK9 (human))?
Its per cent of control is 21%.

What about the per cent of control (MYLK4 (human)) of the same compound?
The per cent of control was 88%.

What about the per cent of control (MYO3A (human)) of the same compound?
The per cent of control was 44%.

What about the per cent of control (NEK3 (human)) of the same compound?
The per cent of control was 100%.

And the per cent of control (OXSR1 (human))?
Its per cent of control is 100%.

And the per cent of control (PIK3C2B (human))?
The per cent of control was 100%.

And the per cent of control (PTK6 (human))?
The per cent of control was 93%.

What about the per cent of control [5] of the same compound?
Its per cent of control is 0%.

And the per cent of control (ROS1 (human))?
The per cent of control was 79%.

What about the per cent of control (SNRK (human)) of the same compound?
The per cent of control was 100%.

What about the per cent of control (STK39 (human)) of the same compound?
Its per cent of control is 76%.

And the per cent of control (TNIK (human))?
The per cent of control was 21%.

And the per cent of control (TSSK1B (human))?
Its per cent of control is 98%.

And the per cent of control (YSK4 (human))?
The per cent of control was 0%.
